Results taken from patent US20030129629A1, “Methods and compositions for the identification, assessment, prevention, and therapy of human cancers” (Millennium Pharmaceuticals, Inc., priority 2000, published 2003).
Read-outs that look alike come from different tables or passages of the source.

System: 60 cancer cell lines (NCI 60 cancer cell line series)
Test: NCI-DTP in vitro cancer screen, sulforhodamine B (SRB) growth inhibition, 48 hour exposure
Type: cell-based, human
Protocol: Cancer Cell Line Preparation. Sixty cancer cell lines were obtained from the National Cancer Institute Developmental Therapeutics Program (NCI-DTP). Procedures for growing cells and testing compounds have been described previously (Scudiero et al., Cancer Res. 1988, 48:4827-4833; Stinson et al., Anticancer Res.; Myers et al., Electrophoresis 1997, 18:647-653). Cells are plated on day 0 at a density individualized for each cell line so that they will generally be sub-confluent at the end of the assay period. On day 1, a compound is added in the format for a duplicate-well, 5-dose, ten-fold interval dose response study.
No-drug, no-cell and no-growth controls are included. On day 3 the cells are processed for staining with sulforhodamine B (SRB), which reflects the amount of cell mass present at the end of a 48 hour exposure to the test agent. From dose response curves based on the SRB data, various parameters can be determined. […] More precisely, the quantity used in the calculation to be described is the potency measure −log{GI50}.
Activity database (A). […] This subset of compounds was selected from the larger 23,000 compound database available from the DTP. The compounds were selected on the basis of their known mechanism of action and chemical structure. The average potency −log{GI50} was extracted from the comma-delimited text files available through the Web at http://www.nci.nih.gov/intra/lmp/jnwbio.html. Subsequently, these −log{GI50} values were inspected manually and classified as indicating either Low, Medium or High sensitivity to each compound.

N[C@@H](Cc1ccc(N(CCCl)CCCl)cc1)C(=O)O [Melphalan]
1: classification of cell line as Low(1), Medium(2), High(3) sensitivity to compound (Colon HT29(I) CL4001) | classification of cell line as Low(1), Medium(2), High(3) sensitivity to compound (Colon KM12 CL4017) | sensitivity classification Low(1)/Medium(2)/High(3) (NSCLC NCI-H332M CL1017) | sensitivity classification Low(1)/Medium(2)/High(3) (Renal A498 CL9013) | sensitivity classification Low(1)/Medium(2)/High(3) (Renal TK10 CL9024)
2: classification of cell line as Low(1), Medium(2), High(3) sensitivity to compound | classification of cell line as Low(1), Medium(2), High(3) sensitivity to compound (Breast BT-549 CL5013) | classification of cell line as Low(1), Medium(2), High(3) sensitivity to compound (Breast HS-578T CL5006) | classification of cell line as Low(1), Medium(2), High(3) sensitivity to compound (Breast MCF7/ADRr CL5002) | classification of cell line as Low(1), Medium(2), High(3) sensitivity to compound (Breast MDA-MB-231 CL5005) | classification of cell line as Low(1), Medium(2), High(3) sensitivity to compound (Breast MDA-MB-435 CL5011) | classification of cell line as Low(1), Medium(2), High(3) sensitivity to compound (Breast MDA-N CL5012) | classification of cell line as Low(1), Medium(2), High(3) sensitivity to compound (Breast T-47D CL5014) | classification of cell line as Low(1), Medium(2), High(3) sensitivity to compound (Colon COLO-250 CL4010) | classification of cell line as Low(1), Medium(2), High(3) sensitivity to compound (Colon HCC-2998 CL4002) | classification of cell line as Low(1), Medium(2), High(3) sensitivity to compound (Colon HCT-15 CL4015) | classification of cell line as Low(1), Medium(2), High(3) sensitivity to compound (Colon HCT-116 CL4003) | classification of cell line as Low(1), Medium(2), High(3) sensitivity to compound (Colon SW-620 CL4009) | classification of cell line as Low(1), Medium(2), High(3) sensitivity to compound (Leukemia K562(I) CL7005) | classification of cell line as Low(1), Medium(2), High(3) sensitivity to compound (Leukemia RPMI-8226(I) CL7010) | classification of cell line as Low(1), Medium(2), High(3) sensitivity to compound (Melanoma LOX IMVI CL10001) | classification of cell line as Low(1), Medium(2), High(3) sensitivity to compound (Melanoma M14 CL10014) | classification of cell line as Low(1), Medium(2), High(3) sensitivity to compound (Melanoma MALME-3M CL10002) | classification of cell line as Low(1), Medium(2), High(3) sensitivity to compound (Melanoma SK-MEL-2 CL10005) | classification of cell line as Low(1), Medium(2), High(3) sensitivity to compound (Melanoma SK-MEL-5 CL10007) | classification of cell line as Low(1), Medium(2), High(3) sensitivity to compound (Melanoma SK-MEL-28 CL10008) | classification of cell line as Low(1), Medium(2), High(3) sensitivity to compound (Melanoma UACC-257 CL10021) | classification of cell line as Low(1), Medium(2), High(3) sensitivity to compound (NSCLC A549/ATCC CL1004) | classification of cell line as Low(1), Medium(2), High(3) sensitivity to compound (NSCLC EKVX CL1008) | classification of cell line as Low(1), Medium(2), High(3) sensitivity to compound (NSCLC HOP-62 CL1026) | classification of cell line as Low(1), Medium(2), High(3) sensitivity to compound (NSCLC HOP-92 CL1029) | sensitivity classification Low(1)/Medium(2)/High(3) (NSCLC NCI-H23(I) CL1001) | classification of cell line as Low(1), Medium(2), High(3) sensitivity to compound (NSCLC NCI-H226 CL1013) | sensitivity classification Low(1)/Medium(2)/High(3) (NSCLC NCI-H522 CL1003) | sensitivity classification Low(1)/Medium(2)/High(3) (Ovarian IGROV1 CL6010) | sensitivity classification Low(1)/Medium(2)/High(3) (Ovarian OVCAR-3 CL6001) | sensitivity classification Low(1)/Medium(2)/High(3) (Ovarian OVCAR-4 CL6002) | sensitivity classification Low(1)/Medium(2)/High(3) (Ovarian OVCAR-5 CL6003) | sensitivity classification Low(1)/Medium(2)/High(3) (Ovarian OVCAR-8 CL6005) | sensitivity classification Low(1)/Medium(2)/High(3) (Ovarian SK-OV-3 CL6011) | sensitivity classification Low(1)/Medium(2)/High(3) (Prostate DU-145 CL11003) | sensitivity classification Low(1)/Medium(2)/High(3) (Prostate PC-3(I) CL11001) | sensitivity classification Low(1)/Medium(2)/High(3) (Renal 786-0 CL9018) | sensitivity classification Low(1)/Medium(2)/High(3) (Renal RXF-393 CL9016) | sensitivity classification Low(1)/Medium(2)/High(3) (Renal SN12C CL9008) | sensitivity classification Low(1)/Medium(2)/High(3) (Renal UO-31 CL9004)
3: classification of cell line as Low(1), Medium(2), High(3) sensitivity to compound (Breast MCF7(I) CL5001) | classification of cell line as Low(1), Medium(2), High(3) sensitivity to compound (Leukemia CCRF-CEM(I) CL7003) | classification of cell line as Low(1), Medium(2), High(3) sensitivity to compound (Leukemia HL-60(I) CL7008) | classification of cell line as Low(1), Medium(2), High(3) sensitivity to compound (Leukemia MOLT-4 CL7006) | classification of cell line as Low(1), Medium(2), High(3) sensitivity to compound (Leukemia SR CL7019) | classification of cell line as Low(1), Medium(2), High(3) sensitivity to compound (Melanoma UACC-62 CL10020) | sensitivity classification Low(1)/Medium(2)/High(3) (NSCLC NCI-H460 CL1021) | sensitivity classification Low(1)/Medium(2)/High(3) (Renal ACHN CL9023) | sensitivity classification Low(1)/Medium(2)/High(3) (Renal CAKI-1 CL9015)
